The Tmax is the time from dosing to the highest level.

Where two headings read alike, the source gives them in different places.

One data set can be described thus: clinical. Conditions: human, in vivo, pH 4, tmax. How it is done: Study Design. A Phase 1, open-label, randomized, single-dose, two-treatment, crossover study was carried out that consisted of a screening period, baseline period, and an open-label treatment period. In the screening period, subjects underwent screening within 21 days prior to entering into the open-label treatment phase of the study.
Safety assessments were performed on each study day and subjects released after discharge assessments on Day 1. Subjects were followed for 6 hours after the administration of the last dose of study drug.
Plasma samples from all subjects that completed two periods of the study were analyzed. […] Actual sampling times were recorded.
(§1) Study Drugs and Administration.
(§2) Each 100 μL spray was administered to the left nostril via a commercially-available multiple dose nasal spray device marketed by Aptar Pharma. Priming of the device (activation 5 times) was done in a hood or priming box within 30 minutes prior to dosing the subject.
(§3) Pharmacokinetic Analysis.
Non-GCP pharmacokinetic analysis was performed using WinNonlin version 7.0. […] Baseline corrected Cmax was calculated from the uncorrected Cmax−PreDose concentration. Baseline corrected AUC0-t was calculated from the uncorrected AUC0-t−PreDose concentration×tlast. […] The point estimates and confidence limits will be exponentiated back to the original scale.

The conditions of data set [1]: male, human, in vivo. The procedure:
In the Screening Period, subjects underwent screening within 28 days prior to entering into the study.
as §1, §2
Participants. […] Plasma samples from all subjects that complete the study were analyzed.
as §3

For data set [2] the following is noted: cited from earlier work; for Cbaseline: Mean ± SD.
For data set [3] the following is noted: single 0.3 mg doses, intranasal and intramuscular; healthy volunteers.
Method: Safety. […] Other safety measures included vital sign measurement. Objective evaluations of nasal irritation were assessed after each administration of study drug using a 6-point (0->5) score. […] Irritation was assessed by evaluating the degree of mucosal inflammation and bleeding. The subjects were required to report any incident of bleeding or inflammation in-between the actual evaluation time points.
The ends of the scale were defined as extreme limits of pain sensation: 0=no pain, 10=extreme pain. The subjects were asked to mark a point on the scale which best describes their intensity of pain and discomfort just prior to dosing (baseline) and at 15 (±2 min) and 30 (±5 min) minutes, and 1 (±10 min) hour post dose. The location of the marking at each time point was measured and noted as the reported score.

As to `CNC[C@H](O)c1ccc(O)c(O)c1` [Epinephrine, (R)-4-(1-Hydroxy-2-(methylamino)ethyl)benzene-1,2-diol], in the data set “clinical”, the Tmax is 53 min. The rate of absorption entry in data set [1] is on record as “rapid, IM-injection-like rate of absorption in the first 20 minutes”. Moreover, the Cbaseline in data set [2] (Intramuscular (IM) 0.3 mg) was 35 ± 23 pg/mL; in data set [2] (Intranasal (IN) 5 mg), 8 ± 6 pg/mL. The “clearance from the plasma” value in data set [2] (Srisawat's 5 mg intranasal formulation (FIG. 2)) is “cleared from the plasma almost entirely in about two hours”. For the same compound, in data set [2] (intranasal dose level of 2.5 mg and below), the “blood level of epinephrine” value is “no blood level of epinephrine”. In data set [2] (intranasal, dose range of Srisawat (FIG. 1)), the “systemic absorption of epinephrine via the IN route” value is given as “significant systemic absorption of epinephrine via the IN route was observed only at 5 mg”. Besides, the adverse events result in data set [3] was “no related adverse events reported”.
